Molecules are shown by their SMILES.

For orientation: melting point means the temperature of the solid-liquid transition. `COC(=O)C1=C(C)NC2=C(C(=O)NCC2)C1c1ccc(F)c(Br)c1` (configuration not stated) came in with a melting point of 150 to 152 °C.
As for `CN(C)Cc1ccc2cc(NC(=O)c3ccc(-c4ccc(F)cc4)cc3)ccc2n1`, the melting point is 205 to 208 °C.
Consider `CC1(N2C(=O)c3cccc(NCc4cccc(Cl)c4)c3C2=O)CCC(=O)NC1=O` (configuration not stated), for which the melting point lay within 199 to 201 °C.
Molecule `CCCCCCNC(=O)Nc1cccc(Oc2ccc3nc(COc4ccc(CC5SC(=O)NC5=O)cc4)n(C)c3c2)c1` (configuration not stated) came in with a melting point of 144 to 147 °C.
`Nc1nc2c(c(=O)n1N)Cc1nc(N)n(N)c(=O)c1C2`: the melting point is above 300 °C.
Under `Cc1cn(C)c2cc(C(C)C)c(Oc3cnc(N)nc3N)cc12` stands 185 °C; under `C=CCSc1nc(O)nn1CC`, 74 to 76 °C.
`O=C(CCCCCCCCCCCCC(=O)ON1C(=O)CCC1=O)OCc1ccccc1` registered a melting point of 61.5 to 62.5 °C.
`Clc1ccc(C2CN(C(c3ccccc3)c3ccccc3)C2)cc1` came in with a melting point of 82 °C.
`O=C(NCC12CC3CC(CC(C3)C1)C2)c1cccnc1Sc1cc(O)ccc1O`: the melting point fell in the range of 108 to 110 °C.
Turning to `CC(=O)OCCn1cc(C(N)=O)c([N+](=O)[O-])n1`, the melting point lay in the range of 139 to 141 °C.
Regarding `CCc1c(-c2ccccc2)n(-c2ccccc2Cl)c(-c2ccccc2)cc1=O`, the melting point was in the range of 165 to 166 °C.
For `Cc1cc(Nc2ncnc3ccc(-c4ccoc4)cc23)ccc1OCc1ccccn1`, the melting point lay within 206 to 208 °C.
Under `Cn1ncc2c1-c1c(Oc3ccc4c(c3)OCO4)sc(C(=O)NC(C)(C)C)c1CC2` stands 171 to 179 °C; under `N#Cc1cccc(-c2nc(C(N)=O)c3[nH]c(=O)n(-c4ccccc4)c3n2)c1`, 328 to 330 °C.
The result for `O=C(Nc1cnccn1)Nc1cccc2c1C1CC3(CCN1C2=O)SCCS3` (configuration not stated) reads 236 °C.
In turn, `CCc1ccc(C(=O)COc2ccc(CC3SC(=O)NC3=O)cc2)nc1` (configuration not stated) came in with a melting point of 148 to 149 °C.
The molecule `O=C1CN(c2ccccc2)C(=O)N1C(=O)c1ccccc1Cl` returned a melting point of 184 to 185 °C.
As to `Cc1cc(CCCCOCCCCCCNCc2c(CO)ccc(O)c2CO)cc(C)c1N`, the melting point was in the range of 66 to 68 °C.
Under `C#CCc1c(C)nc2c(OCc3c(C)cccc3NC(=O)OC)cccn12` stands 179 to 180 °C; under `O=c1[nH]c2cccc3c2n1CCC3`, 216 °C; under `CC(C)(C)NC(=O)c1ccccc1C(C(=O)C(C)(C)C)c1ccccc1` (configuration not stated), 157 to 161 °C.
On to `O=C(CCCCl)Nc1cccc(Cc2n[nH]c(=O)c3ccccc23)c1`, for which the melting point fell in the range of 180 to 184 °C.
On to `CCOC(=O)C1N=C(c2ccccc2)c2cc([N+](=O)[O-])ccc2NC1=O` (configuration not stated), for which the melting point was determined as 271 °C.
The result for `COc1cc(C2CCCCC2)c(Cl)cc1CCO` reads 78 to 79 °C; that for `O=C1NC(=S)S/C1=C\c1ccc(COc2ccc(C(=O)c3ccccc3)cc2)cc1`, 244 to 246 °C.
Under `Cn1c(=O)c2c(N)nc(N)nc2n(C)c1=O` stands above 300 °C; under `Cc1ccc(Cl)c(Nc2ccccc2-c2nsc(=O)o2)c1Cl`, 135 to 137 °C; under `Cc1[nH]cnc1CCCCNC(=O)c1ccccc1`, 124 to 128 °C.
As for `O=C1CCC(N2C(=O)c3cccc(CNC(=O)Nc4ccc(Cl)c(Cl)c4)c3C2=O)C(=O)N1` (configuration not stated), the melting point lay within 241 to 243 °C.
In turn, `C[C@H]([C@](O)(Cn1cncn1)c1ccc(F)cc1F)S(=O)(=O)N1CCN(c2ccc(-n3cnn(CC(F)(F)F)c3=O)cc2)CC1` registered a melting point of 237 to 239 °C.
For `CN1C(C(=O)Nc2ccccn2)=C(OCOC(=O)c2ccccc2)c2ccccc2S1(=O)=O`, the melting point lay within 149 to 150 °C.
Regarding `CN(C)C(=O)c1cc(O)c2nc(C(F)(F)F)n(C)c2c1`, the melting point fell in the range of 243 to 244 °C.
The molecule `CCCCCCCCCCc1ccc(C(=O)COC)c(OC(=O)c2cc(OC)c(OC)cc2OC)c1` showed a melting point of 80 to 81 °C.
As to `Cc1cc(NC(=O)c2cccc(CSc3ncnc4[nH]ncc34)c2)ccc1C(C)C`, the melting point was 187 to 189 °C.
`O=C1CN(c2cccc(Cl)c2)NC(=O)N1` returned a melting point of 224 to 226 °C.
The result for `O=C1CCC(c2ccccc2)(c2ccccc2)[C@@H]2CN(C(=O)Cc3ccccc3Br)C[C@H]12` (racemic) reads 217 °C.
`Cc1ccc(S(N)(=O)=O)cc1C(O)CCl` (configuration not stated): the melting point was 126 °C.
Under `Cc1c(Br)ccc(OC(=O)C(C)(C)C)c1C(=O)O` stands 144 to 145 °C.
`COc1ccc([C@@H]2O[C@@H](CC(=O)O)C(=O)N(CC(C)(C)C)c3ccc(Cl)cc32)c(OC)c1` showed a melting point of 233 to 234 °C.
Regarding `O=C(O)COc1nc2ccccc2s1`, the melting point was in the range of 168 to 170 °C.
In the case of `CC1(C)COc2ccc(C[C@@H](NC(=O)c3cccc4c(Cl)cccc34)[C@@H](O)c3cccc(Cl)c3)cc21` (racemic), the melting point lay within 191 to 192 °C.
Under `N#Cc1ccc2c(c1)C(=O)CC2` stands 109 °C; under `COc1ccc(CC(=O)NC(NC(Cc2ccccc2C)=NC#N)C(C)(C)C)cc1OC` (configuration not stated), 153 to 155 °C; under `COC(=O)NC1CCc2ccc(NC(=O)c3cccc(C)c3-c3ccc(C(F)(F)F)cc3)cc2CC1` (configuration not stated), 190 to 193 °C.
`Clc1ccc2c(c1)C1(CN3CCC(Nc4ncccn4)CC3)CC2c2ccccc21` (configuration not stated) yielded a melting point of 212 to 214 °C.
The result for `CC(=O)N[C@@H]1c2cnccc2OC(C)(C)[C@H]1O` (relative stereo) reads 208 to 210 °C.
In the case of `CS(=O)(=O)c1ccc(-c2cc(-c3nc4ccccc4c(=O)n3-c3ccccc3)sc2N2CCOCC2)cc1`, the melting point was above 275 °C.
`CCOC(=O)c1cnc(N2CCSCC2)nc1Cl`: the melting point fell in the range of 81 to 83 °C.
Regarding `Cc1nc(NCc2ccc(C)o2)c2nc(-c3ccccc3)cc-2[nH]1`, the melting point was 125 to 128 °C.
The result for `CSc1ccc(NC(=N)c2ccccc2)cc1` reads 129 to 131 °C.
`CCc1cc(CSCCNC(=C[N+](=O)[O-])NC)oc1CN(C)C`: the melting point was determined as 91 °C.
The molecule `O=C1N[C@H]2OC=N[C@@]12c1ccccc1` yielded a melting point of 159 to 160 °C.
`CCCN1C(=O)N2C[C@@H](Cc3ccccc3)N=C2c2[nH]c(CSCC)nc21`: the melting point fell in the range of 178 to 180 °C.
On to `O=[N+]([O-])c1ccc(S(=O)C2CC2)cc1` (racemic), for which the melting point lay in the range of 104 to 106 °C.
The molecule `O=C1NC(=O)C2(CCNCC2)N1Cc1ccccc1` came in with a melting point of 195 to 196 °C.
The result for `CCCCCCc1cc2c(cc1OCCCC(=O)O)C(=O)CCC2` reads 81 °C.
`CC(=O)Oc1ccc(O[C@@H]2CCN(C)C[C@H]2c2ccccc2)cc1` (relative stereo) yielded a melting point of 79.5 to 82 °C.
Under `C=CCO/N=C(/C(=O)OCC)c1ccc(OCCOc2ccc3ccccc3c2)s1` stands 75 to 77 °C; under `COc1ccccc1C=C1NC(=O)NC1=O`, 174 to 179 °C.
Turning to `CCCCCCOc1cc(O)c(-c2nc(-c3ccc(C)cc3C)nc(-c3ccc(C)cc3C)n2)cc1C(C)(C)c1ccccc1`, the melting point was in the range of 111 to 115 °C.
In the case of `CC(C)(CO)Nc1nc(-c2ccccc2)nc2ccccc12`, the melting point lay within 136 to 138 °C.
In the case of `CCCCCCCCCCCCCCCC(=O)Nc1nc(=O)n(C2OC(C)C(O)C2O)cc1F` (configuration not stated), the melting point was 93 to 95 °C.
The molecule `CNC(=O)c1cc(-c2ccc(OC)cc2)nn(CC(=O)NCCO)c1=O` came in with a melting point of 240 to 241 °C.
The molecule `O=C(Nc1ccc(-n2nc(C(F)(F)F)cc2C(F)(F)F)c(C(F)(F)F)c1)c1ccc(Cl)cc1` returned a melting point of 65 to 67 °C.
`CCCCc1nc2c(N)nc3ccccc3c2n1CCCNS(C)(=O)=O`: the melting point was in the range of 239 to 241 °C.
Take `Clc1cccc(N2CCN(CCCOc3ccc4scnc4c3)CC2)c1Cl`: the melting point was in the range of 127 to 129 °C.
As for `CCCCCCCOc1ccc2c(c1)N(CCCN1CCC(CCO)CC1)c1cccc(S(=O)(=O)N(C)C)c1S2`, the melting point was 80 °C.
The molecule `O=C(O)c1cc2cc(-c3ccsc3)ccc2o1` had a melting point of 215 to 220 °C.
`O=C(C1=NCCCCCN1)c1ccccc1` registered a melting point of 70 to 71 °C.
On to `CCCc1c(OCCCCCOc2ccc3cc(OCC(=O)O)ccc3c2CCC(=O)O)ccc2c1OCCC2=O`, for which the melting point is 160 to 163 °C.
Turning to `C=CCc1cc(C=CC(=O)O)ccc1OC(C)=O`, the melting point fell in the range of 143 to 144 °C.
Under `CC(=O)OC[C@H]1O[C@@H]2[C@@H](Sc3ccccc3N2C(=O)c2ccccc2)[C@@H](OC(C)=O)[C@@H]1OC(C)=O` stands 154 to 155 °C; under `O=C(O)Cc1nc(-c2ccc(Cl)cc2)sc1Sc1ccccc1`, 191 to 193 °C.
Turning to `O=C1c2ccc(O)cc2OCN1CCO[N+](=O)[O-]`, the melting point lay in the range of 131 to 133 °C.
`O=C(Nc1c[nH]nc1C(=O)NCCc1ccc(Br)cc1)c1ccccn1`: the melting point lay within 266 to 270 °C.
In turn, `CCOC(=O)COc1cc2cc(C(C)O)sc2c(Cl)c1Cl` (configuration not stated) yielded a melting point of 101 to 103 °C.
The molecule `O=C(O)c1cc([N+](=O)[O-])ccc1C1SCCCS1` displayed a melting point of 192 to 194 °C.
For the molecule `C=CCC(=O)NCC(CO)c1cccc2ccc(OC)cc12` (configuration not stated), the melting point was in the range of 86 to 88 °C.
Consider `CN1CCN(c2cc(Cl)cc3c2c(=O)n(Cc2cccc(O)c2)c(=O)n3Cc2ccccc2)CC1`, for which the melting point lay in the range of 234 to 236 °C.
For `CC(C)CCC1C(=O)NS(=O)(=O)N1C` (configuration not stated), the melting point is 212 to 214 °C.
`O=C(Nc1nccs1)c1cccc(-c2ccc3c(c2)C(Nc2ccc(Cl)cc2Cl)CO3)c1` (configuration not stated) yielded a melting point of 221 to 222 °C.
Take `COc1ccc(S(=O)(=O)c2c(C(C)C)cn3cccc(C)c23)cc1`: the melting point turned out to be 103 °C.
Turning to `O=c1[nH]c2cccnc2n1-c1ccccc1`, the melting point was 233 to 235 °C.
For `COCNC(=O)CNC(=O)OCc1ccccc1`, the melting point lay in the range of 77 to 78 °C.
Regarding `COC(=O)c1cc2ccc(C)cc2n1C(C)=O`, the melting point fell in the range of 51 to 53 °C.
The result for `Oc1ccc(CN2CCOCC2)c2cccnc12` reads 130 °C.

These data come from a melting point compilation (Tetko et al.; mined from patent text by program, amines drawn as free bases though some values may be those of a salt).
